Calls of active or inactive are those of the source. No cut-off for these calls is given here.
Columns and labels:
[1] = Half life in human liver microsomes at 0.1 uM preincubated for 10 mins followed by NADPH addition and measured up to 60 mins by LC-MS/MS analysis; assay type: ADME, Microsome
[2] = Clearance in mouse liver microsomes at 0.1 uM preincubated for 10 mins followed by NADPH addition and measured up to 60 mins by LC-MS/MS analysis; assay type: ADME, Microsome; conditions: 1 h
[3] = molecular target: T1, Bromodomain-containing protein 4 (Homo sapiens, UniProt O60885); experiment: Inhibition of BRD4 in human MV4-11 cells assessed as reduction in c-Myc expression measured after 6 to 24 hrs by Western blot analysis; assay type: cell-based
MV4-11 [4] = experiment: Antitumor activity against human MV4-11 cells xenografted in mouse assessed as tumor growth inhibition at 12.5 mg/kg, po administered for 28 days and measured every 2 to 3 days during compound dosing relative to control; assay type: functional; conditions: MV4-11, po, read-out: TGI
MM1.S = experiment: Antiproliferative activity against human MM1S cells assessed as reduction in cell viability measured after 72 hrs by Celltitre-glo luminescence assay; assay type: functional, cell-based
[5] = Clearance in rat liver microsomes at 0.1 uM preincubated for 10 mins followed by NADPH addition and measured up to 60 mins by LC-MS/MS analysis; assay type: ADME, Microsome; conditions: 1 h
[6] = Half life in monkey liver microsomes at 0.1 uM preincubated for 10 mins followed by NADPH addition and measured up to 60 mins by LC-MS/MS analysis; assay type: ADME, Macaca mulatta, Microsome; conditions: rhesus monkey
[7] = Clearance in Sprague-Dawley rat at 1 mg/kg, iv by LC-MS/MS analysis; assay type: ADME, organism-based; conditions: in vivo
MV4-11 [8] = experiment: Cell cycle arrest in human MV4-11 cells assessed as increase in accumulation at G1-phase at 31.25 nM measured after 24 hrs by propidium iodide staining based flow cytometry; assay type: functional
[9] = Half life in rat liver microsomes at 0.1 uM preincubated for 10 mins followed by NADPH addition and measured up to 60 mins by LC-MS/MS analysis; assay type: ADME, Microsome
[10] = Half life in mouse at 3 mg/kg, iv by LC-MS/MS analysis; assay type: ADME, organism-based; conditions: in vivo
[11] = Clearance in dog liver microsomes at 0.1 uM preincubated for 10 mins followed by NADPH addition and measured up to 60 mins by LC-MS/MS analysis; assay type: ADME, Canis lupus familiaris, Microsome; conditions: 1 h
[12] = Oral bioavailability in mouse at 3 mg/kg by LC-MS/MS analysis; assay type: ADME, organism-based; conditions: in vivo
Cytochrome P450 3A4 [13] = molecular target: T2, Cytochrome P450 3A4 (Homo sapiens, UniProt P08684); experiment: Inhibition of CYP3A4 in human liver microsomes using testosterone as substrate preincubated for 10 mins followed by NADPH addition and measured after 15 mins by LC-MS/MS analysis; assay type: ADME
T2 sequence (P08684 whole entry): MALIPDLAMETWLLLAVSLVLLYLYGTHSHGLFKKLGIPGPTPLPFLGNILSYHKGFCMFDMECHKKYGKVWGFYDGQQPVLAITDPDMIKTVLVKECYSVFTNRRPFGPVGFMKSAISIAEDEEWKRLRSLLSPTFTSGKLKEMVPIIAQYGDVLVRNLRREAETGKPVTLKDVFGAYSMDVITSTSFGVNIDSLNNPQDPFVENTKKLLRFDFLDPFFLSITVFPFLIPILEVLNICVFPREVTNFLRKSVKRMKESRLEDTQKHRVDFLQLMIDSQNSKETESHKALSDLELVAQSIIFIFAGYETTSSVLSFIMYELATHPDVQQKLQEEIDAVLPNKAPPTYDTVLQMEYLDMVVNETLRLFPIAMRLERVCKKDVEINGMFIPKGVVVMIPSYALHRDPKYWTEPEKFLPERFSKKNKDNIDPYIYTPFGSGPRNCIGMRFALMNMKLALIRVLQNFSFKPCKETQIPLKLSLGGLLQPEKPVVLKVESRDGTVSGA

[14] = Clearance in human liver microsomes at 0.1 uM preincubated for 10 mins followed by NADPH addition and measured up to 60 mins by LC-MS/MS analysis; assay type: ADME, Microsome; conditions: 1 h
Kasumi 1 = experiment: Antiproliferative activity against human Kasumi-1 cells assessed as reduction in cell viability measured after 72 hrs by Celltitre-glo luminescence assay; assay type: functional, cell-based; conditions: Kasumi 1, 72 h
[15] = molecular target: T1, Bromodomain-containing protein 4; experiment: Inhibition of BRD4 in human MV4-11 cells assessed as up regulation of p21 expression measured after 6 to 24 hrs by Western blot analysis; assay type: cell-based
Cytochrome P450 2C19 = Cytochrome P450 2C19 (Homo sapiens, UniProt P33261); experiment: Inhibition of CYP2C19 in human liver microsomes using S-mephenytoin as substrate preincubated for 10 mins followed by NADPH addition and measured after 15 mins by LC-MS/MS analysis; assay type: ADME
Cytochrome P450 2C19, sequence (P33261 whole entry, the tested form may be a part, canonical isoform): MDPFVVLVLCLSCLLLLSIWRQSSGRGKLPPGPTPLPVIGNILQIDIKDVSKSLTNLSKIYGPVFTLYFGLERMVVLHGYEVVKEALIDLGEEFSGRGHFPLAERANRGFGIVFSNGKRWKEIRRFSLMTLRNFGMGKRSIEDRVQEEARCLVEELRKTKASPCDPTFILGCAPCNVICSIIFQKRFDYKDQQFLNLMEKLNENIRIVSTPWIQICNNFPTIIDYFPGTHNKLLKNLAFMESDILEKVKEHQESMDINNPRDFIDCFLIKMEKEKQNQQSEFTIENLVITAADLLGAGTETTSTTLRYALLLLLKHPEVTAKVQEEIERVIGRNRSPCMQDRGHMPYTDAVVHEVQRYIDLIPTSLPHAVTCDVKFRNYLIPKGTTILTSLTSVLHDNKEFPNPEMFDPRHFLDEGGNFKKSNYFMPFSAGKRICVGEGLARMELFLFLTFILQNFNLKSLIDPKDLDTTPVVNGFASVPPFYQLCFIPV

[16] = molecular target: Bromodomain-containing protein 2 (Homo sapiens, UniProt P25440); experiment: Binding affinity to human partial length BRD2 BD2 isoform 1 (E348 to D455 residues) expressed in bacterial expression system by bromoscan assay
Bromodomain-containing protein 2, sequence (P25440 whole entry, the tested form may be a part, canonical isoform): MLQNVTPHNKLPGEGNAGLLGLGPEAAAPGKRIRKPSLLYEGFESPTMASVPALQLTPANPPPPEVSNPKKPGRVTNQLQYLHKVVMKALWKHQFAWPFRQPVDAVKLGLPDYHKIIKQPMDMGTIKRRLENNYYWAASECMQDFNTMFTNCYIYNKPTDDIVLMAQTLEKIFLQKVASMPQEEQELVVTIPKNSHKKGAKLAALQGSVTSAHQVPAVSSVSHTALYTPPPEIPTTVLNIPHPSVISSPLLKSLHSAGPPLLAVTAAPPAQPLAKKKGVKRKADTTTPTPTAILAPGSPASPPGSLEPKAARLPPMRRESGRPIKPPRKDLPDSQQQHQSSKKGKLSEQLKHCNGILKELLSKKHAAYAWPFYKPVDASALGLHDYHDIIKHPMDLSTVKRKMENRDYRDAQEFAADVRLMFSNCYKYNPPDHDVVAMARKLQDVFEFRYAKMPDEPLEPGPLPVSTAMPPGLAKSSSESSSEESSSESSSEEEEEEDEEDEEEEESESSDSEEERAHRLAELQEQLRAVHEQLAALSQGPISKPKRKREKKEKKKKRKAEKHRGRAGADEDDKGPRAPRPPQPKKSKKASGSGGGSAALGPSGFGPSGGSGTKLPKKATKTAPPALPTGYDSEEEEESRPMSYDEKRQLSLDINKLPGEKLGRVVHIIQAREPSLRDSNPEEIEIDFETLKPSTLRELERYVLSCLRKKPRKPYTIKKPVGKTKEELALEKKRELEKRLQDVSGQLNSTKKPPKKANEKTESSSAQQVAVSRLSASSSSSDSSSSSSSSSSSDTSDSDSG

[17] = Clearance in mouse at 3 mg/kg, iv by LC-MS/MS analysis; assay type: ADME, organism-based; conditions: in vivo
Cytochrome P450 3A4 [18] = molecular target: T2, Cytochrome P450 3A4; experiment: Inhibition of CYP3A4 in human liver microsomes using midazolam as substrate preincubated for 10 mins followed by NADPH addition and measured after 15 mins by LC-MS/MS analysis; assay type: ADME
[19] = Half life in mouse liver microsomes at 0.1 uM preincubated for 10 mins followed by NADPH addition and measured up to 60 mins by LC-MS/MS analysis; assay type: ADME, Microsome
[20] = AUC (0 to t) in Sprague-Dawley rat at 3 mg/kg, po by LC-MS/MS analysis; assay type: ADME, organism-based; conditions: in vivo
[21] = Half life in Sprague-Dawley rat at 3 mg/kg, po by LC-MS/MS analysis; assay type: ADME, organism-based; conditions: in vivo
[22] = molecular target: Bromodomain testis-specific protein (Homo sapiens, UniProt Q58F21); experiment: Binding affinity to human partial length BRDT bromodomain 2 isoform b (K250 to E382 residues) expressed in bacterial expression system by bromoscan assay
[23] = Cmax in Sprague-Dawley rat at 3 mg/kg, po by LC-MS/MS analysis; assay type: ADME, organism-based; set-up: dose 3 mg/kg, route oral; conditions: in vivo
MV4-11 [24] = experiment: Antitumor activity against human MV4-11 cells xenografted in mouse assessed as tumor growth inhibition at 6.25 mg/kg, po administered for 28 days and measured every 2 to 3 days during compound dosing relative to control; assay type: functional; conditions: MV4-11, po, read-out: TGI
[25] = Oral bioavailability in Sprague-Dawley rat at 3 mg/kg by LC-MS/MS analysis; assay type: ADME, organism-based; conditions: in vivo
RS4-11 = experiment: Antiproliferative activity against human RS4:11 cells assessed as reduction in cell viability measured after 72 hrs by Celltitre-glo luminescence assay; assay type: functional, cell-based; conditions: RS4-11, 72 h
[26] = Volume of distribution at steady state in mouse at 3 mg/kg, iv by LC-MS/MS analysis; assay type: ADME, organism-based; conditions: in vivo, read-out: Vdss
Cytochrome P450 1A2 = molecular target: T3, Cytochrome P450 1A2 (Homo sapiens, UniProt P05177); experiment: Inhibition of CYP1A2 in human liver microsomes using phenacetin as substrate preincubated for 10 mins followed by NADPH addition and measured after 15 mins by LC-MS/MS analysis; assay type: ADME
T3 sequence (P05177 whole entry): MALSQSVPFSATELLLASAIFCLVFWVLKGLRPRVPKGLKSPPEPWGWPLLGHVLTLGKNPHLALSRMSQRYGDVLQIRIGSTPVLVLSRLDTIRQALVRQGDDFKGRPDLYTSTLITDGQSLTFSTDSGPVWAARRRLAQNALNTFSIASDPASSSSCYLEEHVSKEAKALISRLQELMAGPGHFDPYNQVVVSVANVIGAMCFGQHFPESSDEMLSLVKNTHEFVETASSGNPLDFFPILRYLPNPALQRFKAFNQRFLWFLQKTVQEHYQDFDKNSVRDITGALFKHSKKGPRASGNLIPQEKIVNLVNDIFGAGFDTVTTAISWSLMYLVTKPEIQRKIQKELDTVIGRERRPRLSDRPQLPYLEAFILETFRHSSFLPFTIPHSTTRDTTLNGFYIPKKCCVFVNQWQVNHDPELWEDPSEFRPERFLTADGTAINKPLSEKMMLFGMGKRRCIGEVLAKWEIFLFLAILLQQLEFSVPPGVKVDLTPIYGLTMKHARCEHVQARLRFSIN

[27] = molecular target: Histone acetyltransferase p300 (Homo sapiens, UniProt Q09472); experiment: Inhibition of MSGRGK(Ac)-GGK(Ac)GLGK(Ac)GGAKRHR-biotin binding to EP300 (1040 to 1160 residues) (unknown origin) expressed in Escherichia coli BL21 (DE3) by Alphascreen assay
Histone acetyltransferase p300, sequence (Q09472 whole entry, the tested form may be a part): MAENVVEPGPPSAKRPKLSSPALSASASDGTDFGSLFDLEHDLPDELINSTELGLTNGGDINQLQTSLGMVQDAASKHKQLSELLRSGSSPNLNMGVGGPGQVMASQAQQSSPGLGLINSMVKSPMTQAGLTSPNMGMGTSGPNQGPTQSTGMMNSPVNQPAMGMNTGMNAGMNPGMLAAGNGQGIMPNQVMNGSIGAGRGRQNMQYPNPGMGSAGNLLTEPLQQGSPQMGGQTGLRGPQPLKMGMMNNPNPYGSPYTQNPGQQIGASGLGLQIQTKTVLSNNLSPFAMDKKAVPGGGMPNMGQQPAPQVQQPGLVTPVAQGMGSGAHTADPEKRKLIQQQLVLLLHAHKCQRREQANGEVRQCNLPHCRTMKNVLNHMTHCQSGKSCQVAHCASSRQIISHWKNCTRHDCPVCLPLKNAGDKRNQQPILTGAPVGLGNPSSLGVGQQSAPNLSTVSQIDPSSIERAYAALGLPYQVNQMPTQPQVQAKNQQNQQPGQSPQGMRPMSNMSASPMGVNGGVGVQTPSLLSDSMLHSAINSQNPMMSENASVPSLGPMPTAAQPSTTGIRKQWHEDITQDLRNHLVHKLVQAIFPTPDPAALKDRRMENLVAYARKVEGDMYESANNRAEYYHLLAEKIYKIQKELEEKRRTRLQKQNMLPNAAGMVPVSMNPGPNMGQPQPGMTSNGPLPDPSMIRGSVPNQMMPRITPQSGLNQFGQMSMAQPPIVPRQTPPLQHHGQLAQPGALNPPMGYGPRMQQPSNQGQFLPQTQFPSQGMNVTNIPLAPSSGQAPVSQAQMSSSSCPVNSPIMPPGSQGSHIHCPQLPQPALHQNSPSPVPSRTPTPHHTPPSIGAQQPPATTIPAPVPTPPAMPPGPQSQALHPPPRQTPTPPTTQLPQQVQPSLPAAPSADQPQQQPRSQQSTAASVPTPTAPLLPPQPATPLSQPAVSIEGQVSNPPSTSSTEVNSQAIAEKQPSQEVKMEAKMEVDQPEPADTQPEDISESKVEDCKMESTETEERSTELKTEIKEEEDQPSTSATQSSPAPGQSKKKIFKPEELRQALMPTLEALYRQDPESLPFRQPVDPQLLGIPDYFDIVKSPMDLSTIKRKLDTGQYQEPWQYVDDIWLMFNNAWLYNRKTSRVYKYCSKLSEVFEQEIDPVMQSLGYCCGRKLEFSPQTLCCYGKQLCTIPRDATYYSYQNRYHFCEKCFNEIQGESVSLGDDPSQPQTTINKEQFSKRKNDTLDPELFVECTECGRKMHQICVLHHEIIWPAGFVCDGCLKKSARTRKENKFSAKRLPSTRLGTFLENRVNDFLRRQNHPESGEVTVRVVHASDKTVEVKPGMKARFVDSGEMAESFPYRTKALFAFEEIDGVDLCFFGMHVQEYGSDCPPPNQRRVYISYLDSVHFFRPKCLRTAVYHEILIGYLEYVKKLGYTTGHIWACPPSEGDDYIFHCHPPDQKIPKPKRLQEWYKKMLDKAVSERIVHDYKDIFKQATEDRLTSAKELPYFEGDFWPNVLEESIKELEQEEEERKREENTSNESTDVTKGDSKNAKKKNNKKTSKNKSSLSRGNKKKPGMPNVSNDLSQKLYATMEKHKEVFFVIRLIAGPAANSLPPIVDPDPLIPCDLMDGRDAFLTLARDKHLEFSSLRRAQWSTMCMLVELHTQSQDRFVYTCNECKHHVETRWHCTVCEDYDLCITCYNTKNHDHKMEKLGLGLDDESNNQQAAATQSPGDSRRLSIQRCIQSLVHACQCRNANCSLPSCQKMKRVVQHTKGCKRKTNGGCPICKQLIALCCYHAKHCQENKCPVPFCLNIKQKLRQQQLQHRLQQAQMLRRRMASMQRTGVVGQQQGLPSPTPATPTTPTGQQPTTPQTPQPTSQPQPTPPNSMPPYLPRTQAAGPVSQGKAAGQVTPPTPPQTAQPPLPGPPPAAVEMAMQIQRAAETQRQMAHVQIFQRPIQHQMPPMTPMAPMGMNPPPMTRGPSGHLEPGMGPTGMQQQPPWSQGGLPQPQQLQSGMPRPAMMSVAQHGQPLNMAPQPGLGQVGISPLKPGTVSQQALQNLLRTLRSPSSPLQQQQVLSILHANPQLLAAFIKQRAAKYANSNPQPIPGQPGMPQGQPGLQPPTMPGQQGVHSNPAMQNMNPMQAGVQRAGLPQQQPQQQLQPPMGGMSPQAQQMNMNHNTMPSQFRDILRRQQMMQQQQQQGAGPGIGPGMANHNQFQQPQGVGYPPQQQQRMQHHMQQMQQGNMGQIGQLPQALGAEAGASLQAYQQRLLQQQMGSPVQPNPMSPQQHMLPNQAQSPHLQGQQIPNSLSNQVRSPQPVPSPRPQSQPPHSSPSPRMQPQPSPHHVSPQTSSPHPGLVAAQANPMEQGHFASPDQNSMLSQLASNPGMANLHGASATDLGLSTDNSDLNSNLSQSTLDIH

## CCS(=O)(=O)Cc1cnc(Oc2ccc(F)cc2F)c(-c2cc(C)c3c(=O)[nH]ccn23)c1
[1]
  half-life at 0.1 µM: 2.87 h
[2]
  Microsomal intrinsic clearance: 25.4 mL/min/g
[3]
  inhibition: Dose-dependent effect
MV4-11 [4]
  inhibition in vivo at 12.5 mg/kg: 99.7%
MM1.S
  IC50: 15.9 nM
[5]
  Intrinsic clearance: 64.8 mL/min/g
[6]
  half-life at 0.1 µM: 0.817 h
[7]
  clearance: 21.5 mL/min/kg
MV4-11 [8]
  Activity: Active
[9]
  half-life at 0.1 µM: 0.54 h
[10]
  half-life: 0.9 h
[11]
  CLH: 25.2 mL/min/g
[12]
  bioavailability: 52.3%
Cytochrome P450 3A4 [13]
  IC50: > 20000 nM
[14]
  Microsomal intrinsic clearance: 12.2 mL/min/g
Kasumi 1
  IC50: 7.4 nM
[15]
  inhibition: Dose-dependent effect
Cytochrome P450 2C19
  IC50: > 20000 nM
[16]
  Kd: 1.3 nM
[17]
  clearance: 15.3 mL/min/kg
Cytochrome P450 3A4 [18]
  IC50: > 20000 nM
[19]
  half-life at 0.1 µM: 1.38 h
[20]
  AUC(0-t): 884 ng·h/mL
[21]
  half-life: 3.6 h
[22]
  Kd: 2.1 nM
[23]
  Cmax: 159 ng/mL
MV4-11 [24]
  inhibition in vivo at 6.25 mg/kg: 76.4%
[25]
  bioavailability: 34.7%
RS4-11
  IC50: 22.1 nM
[26]
  Vd: 0.782 L/kg
Cytochrome P450 1A2
  IC50: > 20000 nM
[27]
  IC50: 3860 nM

Source: ChEMBL document CHEMBL4402585 (J Med Chem, 2020)
